Results published in patent US20230365546A1, “5-SUBSTITUTED INDOLE 3-AMIDE DERIVATIVES, PREPARATION METHOD AND USE THEREOF” (ORIGIANT PHARMACEUTICAL CO., LTD, priority 2020, published 2023).

Tests used:
[1] = system: RIPK1 autophosphorylation, phosphorylation of RIPK3 and MLKL; assay: Regulation of RIPK1 signaling pathway (Western blot); type: cell-based; conditions: TNF α/Smac mimetic/Z-VAD-FMK induced, FIG. 4
From the text: TNF α was purchased from PeproTech Inc., Smac mimetic and Z-VAD-FMK was purchased from Selleck Inc., RIPA lysis buffer was purchased from Beyotime Institute of Biotechnology, cocktail was purchased from MedChemExpress (MCE) Limited, PMSF protease inhibitors, sodium dodecylsulfonate SDS, and glycine were purchased from Sigma Inc., acrylamide, tris(hydroxymethyl)aminomethane Tris, ammonium persulfate APS and N,N,N′,N′-tetramethyl ethylenediamine TEMED were purchased from Wuhan Servicebio Technology Co., Ltd.
Extraction of total cellular protein: after the cells were treated by adding the corresponding concentration of Compounds 94 and 46 or blank vehicle to the cell supernatant and induced with TNF α/Smac mimetic/Z-VAD-FMK combination for a certain period of time, the supernatant was discarded, followed by washing three times with pre-cooled PBS or normal saline, then an appropriate volume of RIPA lysis buffer (containing 1% cocktail and 1% PMSF protease inhibitor) was added, the mixture was immediately placed on ice horizontally for lysis of 15 min, then the cell lysis buffer was scraped with a scraper and transferred to a 1.5 ml EP tube, and the cells were disrupted with a sonicator. The tubes were then centrifuged in a low temperature high speed centrifuge (12000 rpm, 15 min) to remove cell debris. […]

hERG potassium channel = hERG potassium channel (Homo sapiens (Human), UniProt Q12809); assay: cell-based
Procedure: Stable HEK-hERG cells were washed with DPBS, digested with Trypsin or Tryple solution, resuspended in culture medium, and stored in centrifuge tubes for use.
hERG currents were recorded with a whole-cell patch clamp technique. The cell suspension was placed in a small petri dish and placed on an objective table of an inverted microscope. After attachment, the cells were perfused with extracellular fluid at a recommended flow rate of 1-2 mL/min. The glass microelectrode was pulled in two steps by a microelectrode puller, and the resistance in electrode fill solution was 2-5 MΩ.
After establishing the whole-cell recording mode, the clamping potential was kept at −80 mV. […] This set of pulses was repeated every 15 seconds throughout the experiment.
After the current was stable, continuous extracellular perfusion administration was conducted from low concentration to high concentration. The perfusion was continued from a low concentration until the pharmaceutical effect was stable, and then the perfusion of the next concentration was conducted.
if it was unstable, this concentration data would not be taken.
IC50 values were obtained by fitting the Hill equation (if applicable): […]

TNF α-induced SIRS = assay: TNF α-induced mouse SIRS model; type: in vivo
Procedure: TNF α formulated in sterile normal saline was administered at a dose of 500 μg/kg by tail vein injection for modeling. The body temperature of the mice was measured by an infrared electric thermometer. The orally-administrated vehicle was 25% castor oil in ethanol and 75% normal saline. Compounds 94 and 46 and RIPK1 positive compound GSK2982772 were administered orally before modeling with a dose of 40 mg/kg. Body temperature and the survival of mice were recorded every hour and recorded for 24 h and 48 h after 11 h.
This experiment established a TNF α-induced SIRS mouse model to evaluate the in vivo activity of compounds of the present invention. TNF α formulated in sterile normal saline was administered to mice at a dose of 500 μg/kg by tail vein injection for modeling. Since the measurement of rectal temperature would cause mechanical injury to mice and may interfere with the experimental results, an infrared electric thermometer was used to measure the body temperature of mice and the survival condition was observed. Compounds 94 and 46 were administered at a dose of 40 mg/kg once prior to modeling. The Vehicle group was given the corresponding vehicle control.

DSS-induced colitis = assay: DSS-induced mouse IBD model
Procedure: Female C57BL/6 mice weighing 17-20 g were used. […] Fresh DSS solution was changed on Days 2, 4, and 6, respectively. […] The Control group was given normal drinking water daily and corresponding vehicles orally starting on day 7. Body weights and survival rates of mice were recorded daily. Survival curves were fitted using Graphpad Prism 5.0 software. Mice (2/group) were sacrificed on day 12 and observed for changes in colon length.

hERG potassium channel, sequence (Q12809 whole entry): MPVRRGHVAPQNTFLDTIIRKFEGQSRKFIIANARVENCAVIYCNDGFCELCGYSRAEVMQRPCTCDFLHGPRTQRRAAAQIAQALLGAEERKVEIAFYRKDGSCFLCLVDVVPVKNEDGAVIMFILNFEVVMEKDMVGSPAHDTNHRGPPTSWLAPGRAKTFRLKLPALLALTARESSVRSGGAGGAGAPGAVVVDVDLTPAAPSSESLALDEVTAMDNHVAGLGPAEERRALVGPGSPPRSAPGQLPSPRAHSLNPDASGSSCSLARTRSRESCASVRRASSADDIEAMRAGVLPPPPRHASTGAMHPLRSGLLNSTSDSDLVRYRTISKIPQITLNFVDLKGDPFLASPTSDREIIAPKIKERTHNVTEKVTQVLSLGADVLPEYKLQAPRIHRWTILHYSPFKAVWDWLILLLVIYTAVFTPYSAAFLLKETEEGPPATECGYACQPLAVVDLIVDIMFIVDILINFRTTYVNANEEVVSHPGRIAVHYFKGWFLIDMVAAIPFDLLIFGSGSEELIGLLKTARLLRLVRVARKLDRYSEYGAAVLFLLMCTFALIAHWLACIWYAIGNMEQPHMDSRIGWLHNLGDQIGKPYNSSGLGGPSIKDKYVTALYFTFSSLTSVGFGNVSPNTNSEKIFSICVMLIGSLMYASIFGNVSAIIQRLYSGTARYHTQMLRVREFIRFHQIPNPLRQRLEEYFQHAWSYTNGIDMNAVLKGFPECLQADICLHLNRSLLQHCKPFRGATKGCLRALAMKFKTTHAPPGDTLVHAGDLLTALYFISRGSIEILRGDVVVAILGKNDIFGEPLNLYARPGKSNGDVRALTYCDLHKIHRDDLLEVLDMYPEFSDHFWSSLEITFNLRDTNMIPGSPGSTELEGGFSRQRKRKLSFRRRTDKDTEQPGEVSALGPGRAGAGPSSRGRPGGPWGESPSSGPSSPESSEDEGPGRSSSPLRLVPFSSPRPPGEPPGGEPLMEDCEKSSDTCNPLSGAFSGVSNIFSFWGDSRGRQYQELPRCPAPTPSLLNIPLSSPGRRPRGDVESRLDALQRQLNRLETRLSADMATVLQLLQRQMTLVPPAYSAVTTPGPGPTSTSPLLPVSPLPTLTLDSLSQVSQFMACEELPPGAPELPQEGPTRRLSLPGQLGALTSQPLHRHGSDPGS

**Q.** Which “Effect on necrotic signaling pathway (RIPK1 autophosphorylation, RIPK3 and MLKL phosphorylation)” value [1] does the source give for `C[C@H](NC(=O)c1cn(C)c2ccc(-c3ccn4nc(NC(=O)C5CC5)nc4c3)cc12)c1cccc(F)c1` [Compound 94, (S)-5-(2-(cyclopropanecarboxamido)-[1,2,4]triazolo[1,5-a]pyridin-7-yl)-N-(1-(3-fluorophenyl)ethyl)-1-methyl-1H-indole-3-carboxamide] here?
**A.** affected the phosphorylation of RIPK3 and MLKL downstream of RIPK1 by inhibiting its autophosphorylation

**Q.** What about the IC50 (hERG potassium channel) of the same compound?
**A.** > 30 µM

**Q.** What about the “Average inhibitory ratio on hERG potassium channel current” value (hERG potassium channel; human, 30 μM) of the same compound?
**A.** 3.40%

**Q.** And the Overall mortality (TNF α-induced SIRS; 40 mg/kg oral once before TNF α 500 μg/kg i.v., compared with Vehicle group)?
**A.** significantly reduced

**Q.** What about the “Body temperature of mice” value (TNF α-induced SIRS; 40 mg/kg oral once before TNF α 500 μg/kg i.v., within 11 h) of the same compound?
**A.** relatively normal

**Q.** And the “Protective effect compared with positive drug” value (TNF α-induced SIRS; 40 mg/kg oral, vs GSK2982772 40 mg/kg)?
**A.** better protective effect than positive drug GSK2982772

**Q.** What about the Death of mice (DSS-induced colitis; 40 mg/kg oral from day 7 after 2.5% DSS) of the same compound?
**A.** no death by 14 days

**Q.** What about the “Body weight of mice” value (DSS-induced colitis; 40 mg/kg oral from day 7 after 2.5% DSS, FIG. 6) of the same compound?
**A.** gradual increase in body weight

**Q.** And the “Colon length of mice” value (DSS-induced colitis; 40 mg/kg oral, sacrificed on day 12, FIG. 7)?
**A.** basically equivalent to that of mice in Control group

**Q.** What about the “Therapeutic effect compared with positive drug” value (DSS-induced colitis; 40 mg/kg oral, vs GSK3145095 40 mg/kg) of the same compound?
**A.** better therapeutic effect than positive drug GSK3145095
